Experimental data as given in patent publication US4337267A, “Phenalkoxyalkyl- and phenoxyalkyl-substituted oxiranecarboxylic acids, their use and medicaments containing them” (Byk Gulden Lomberg Chemische Fabrik GmbH, priority 1980, dated 1982).
Read-outs that look alike come from different tables or passages of the source.

Tests used:
[1] = tested on: blood glucose concentration; experiment: Determination of glucose in the blood after a single oral administration (fasting, metabolically healthy rats); format: in vivo, rat (young male Sprague-Dawley); settings: Rattus norvegicus
Procedure: Table I reflects investigations of the effect of representative compounds according to the invention on the blood glucose concentration of fasting, metabolically healthy rats which are observed for 6 hours after a single oral administration of from 0.01 to 0.6 mmol of substance/kg of body weight.
1. Determination of glucose in the blood after a single oral administration-
Young male Sprague-Dawley rats (body weight: 150 to 200 g) are used. The animals are kept in Makrolon cages with up to 4 animals per cage (ambient temperature: 23° C., relative atmospheric humidity: 55%, fixed day/night rhythm [12/12 hours], standard diet: Altromin®). The rats are deprived of the feed 18 hours before the first sample of blood is taken. Water is available ad libitum. Samples of blood are taken from the postorbital plexus by puncture immediately before and 3 and 6 hours after administration of the substance.
After deproteinization with perchloric acid, the glucose in the blood is determined by means of the enzymatic HK/G-6-PDH method of R. Richterich [Klinische Chemie, Theorie und Praxis, (Clinical Chemistry, Theory and Practice), 3rd edition, 1971, S. Karger Verlag, Zurich-Basle, page 275]. A control group (treated with pure solvent) is also investigated in each case for comparison.

in vivo = settings: mouse, po
Procedure: Column C provides data relating to acute toxicity (LD50; mice, peroral administration).
2. Determination of the toxicity-
Various doses of the substances (volume: 10 ml/kg) are administered orally by means of a stomach tube. The observation time is 7 days.

[2] = rats p.o., single dose, fasting, observed for 6 hours, with reference to control group, read-out: ED50 (15%): dose which effects a lowering of the blood glucose concentration by at least 15% in 50% of the animals
[3] = rats p.o., single dose, fasting, observed for 6 hours, with reference to control group, read-out: ED50 (25%): dose which effects a lowering of the blood glucose concentration by at least 25% in 50% of the animals

Compound	ED50 ([1]; 6 h, read-out: ED50 (15%): dose which effects a lowering of the blood glucose concentration by at least 15% in 50% of the animals) [mg/kg]	ED50 ([1]; 6 h, read-out: ED50 (25%): dose which effects a lowering of the blood glucose concentration by at least 25% in 50% of the animals) [mg/kg]	ED50 [1, 2] [mg/kg]	ED50 [1, 3] [mg/kg]	LD50 at 168 h (in vivo) [mg/kg]
CCCCNC(=N)NC(=N)N [Serial No. 1, Buformin, reference compound]	> 100	194			
[H]/N=C(/N)N/C(=N/[H])NCCc1ccccc1 [Serial No. 2, Phenformin, reference compound]			> 150	> 343	
CCOC(=O)C1(CCCCOc2cccc(Cl)c2)CO1 (stereo not drawn) [Serial No. 3, 2-[4-(3-Chlorophenoxy)butyl]oxirane-2-carboxylic acid ethyl ester]			3	24	390
CCOC(=O)C1(CCCCOc2cccc(C(F)(F)F)c2)CO1 (stereo not drawn) [Serial No. 4, 2-[4-(3-Trifluoromethylphenoxy)butyl]oxirane-2-carboxylic acid ethyl ester]			~7	13	460
CCOC(=O)C1(CCCCCCOc2ccc(Cl)cc2)CO1 (stereo not drawn) [Serial No. 5, 2-[6-(4-Chlorophenoxy)hexyl]oxirane-2-carboxylic acid ethyl ester]			< 7	7	300
CCOC(=O)C1(CCCCCOc2ccc(Cl)cc2)CO1 (stereo not drawn) [Serial No. 6, 2-[5-(4-Chlorophenoxy)pentyl]oxirane-2-carboxylic acid ethyl ester]			5	6	310
CCOC(=O)C1(CCCCOc2ccc(C)cc2)CO1 (stereo not drawn) [Serial No. 7, 2-[4-(4-Methylphenoxy)butyl]oxirane-2-carboxylic acid ethyl ester]			8	19	
